Results reported in publication PMC9949698, “Visible-Light-Controlled Histone Deacetylase Inhibitors for Targeted Cancer Therapy” (Journal of Medicinal Chemistry, 2023).
Like-named read-outs stand apart in the source and are kept apart here.

Experiments:
[1] = UV–vis spectra and optimal isomerization wavelengths; type: physicochemical; details: 25–50 μM in DMSO, using CoolLed at 217 mW/cm^2 instead of Teleopto plates
[2] = cited from earlier work
[3] = tested on: HeLa cells; assay: HeLa cell viability, MTS assay, dark or preillumination; type: cell-based; details: for IC50: Homo sapiens, HeLa; for IC50(dark)/IC50(light): Table 5; for viability decreasing to: under illumination
Experimental: We then proceeded to evaluate the effect of the compounds in a viability assay against HeLa cells.
(§1) HeLa, MCF7, and HT29 cells were maintained in adherent cultures in DMEM supplemented with 10% FBS. KG1 cells were maintained in a suspension culture in IMDM supplemented with 20% FBS.
Stock solutions of the compounds were heated to 60 or 80 °C to obtain solutions with the maximum amount of the trans isomer (dark). […] The solutions were then serially diluted with DMEM to give 20 times the desired final concentration, maintaining DMSO at 10%.
Cells were seeded in 96-well black flat bottom plates with a clear bottom at a density of 5 × 10^3 cells/well (HeLa) or 1 × 10^4 cells/well (MCF7, HT29, and KG1), in a volume of 95 μL.
(§2) Viability of HeLa, MCF7, and […] cells was determined with a CellTiter 96 assay (Promega), according to the manufacturer’s instructions. Briefly, 20 μL of CellTiter 96 reagent was added to each well, the plates were incubated at 37 °C for 2 h, and the absorbance at 490 nm was recorded. Viability is expressed as a percentage with respect to the nontreated cells.

[4] = UV–vis spectra and optimal isomerization wavelengths; type: physicochemical; details: for λcis (optimal wavelength trans to cis) / λtrans (optimal wavelength cis to trans): UV–vis at 25–50 μM in DMSO, Teleopto plates (Table 1)
Experimental: Ultraviolet–visible (UV–vis) spectra were recorded using a Tecan Spark 20M Multimode Microplate reader. Samples (200 μL of compound solution/well) were prepared at […] in DMSO. Samples were measured between 300 and 800 nm with 2 nm fixed intervals in 96-well transparent plates. Illumination at different wavelengths was performed for 2 min using 96-well LED array plates (LEDA Teleopto) placed below the samples. […] Potencies were measured using a Thorlabs PM100D power energy meter connected with a standard photodiode power sensor (S120VC).

[5] = tested on: MCF7 cells; assay: MCF7 cell viability, MTS assay, 50 μM; type: cell-based; details: 48 h; for effect on viability when preilluminated: preilluminated (380 or 550 nm)
Experimental: (§3) HDACis have been proposed as a potential therapeutic strategy against cancer stem cells (CSCs).[39],[40] We selected three cell lines that have a strong CSC phenotype (HT29,[41],[42] MCF7[43]−[45] and KG1[46]) and tested the best compounds at 50 μM under dark and illumination conditions.
as §1
(§4) Stock solutions of the compounds were heated to 60 or 80 °C to obtain solutions with the maximum amount of the trans isomer (dark). For the “light” solutions, the stock solutions were illuminated with 96-well LED array plates for 3 min at the maximum potency. The solutions were then serially diluted with DMEM to give 20 times the desired final concentration, maintaining DMSO at 10%.
(§5) Cells were seeded in 96-well black flat bottom plates with a clear bottom at a density of 5 × 10^3 cells/well (HeLa) or 1 × 10^4 cells/well (MCF7, HT29, and KG1), in a volume of 95 μL. After 24 h, 5 μL of compound solutions (20×) were added. Cells were incubated for 48 h.
as §2

[6] = tested on: KG1 cells; assay: KG1 cell viability, CellTiterGlo assay, 50 μM; type: cell-based; details: 48 h; for effect on viability when preilluminated: preilluminated (380 or 550 nm)
Experimental: as §3, §1, §4, §5
Viability of KG1 cells was determined with a CellTiter-Glo (Promega) assay, according to the manufacturer’s instructions. Briefly, 100 μL of CellTiter-Glo reagent was added to each well, the plates were kept at room temperature for 10 min, and the luminescence was recorded. Viability is expressed as a percentage with respect to the nontreated cells.

[7] = E/Z composition under light or temperature conditions by HPLC; type: physicochemical
[8] = molecular target: T1, human recombinant HDAC1 (Homo sapiens, UniProt Q13547); assay: Fluorogenic assay with human recombinant HDAC1, dark or illumination; type: biochemical; details: for activity at the highest tested concentration in the dark: 10 μM; for IC50 under illumination, in words: continuous illumination
T1 construct: purchased BPS Bioscience
Experimental: To study the inhibition of HDAC enzymes by the compounds, we used a fluorogenic assay with human recombinant HDAC1.[32] The enzyme was incubated with an acetylated substrate and each inhibitor for 1 h at room temperature, under either dark or light conditions. We opted for illumination throughout the incubation period to maintain the maximum proportion of cis under light conditions. […] Then, the deacetylated substrate generated a fluorescent coumarin after incubation of the mixture with trypsin at 37 °C for 20 min.
Stock solutions of the compounds were diluted to 1 mM in DMSO and then heated to 60 or 80 °C to obtain solutions with the maximum amount of the trans isomer (dark). […] The 1 mM solutions were then serially diluted with HDAC buffer to 10 times the desired concentration, maintaining DMSO at 10%.
In control wells without the compound, inhibitor, or enzyme, HDAC buffer was added instead. […] Then, 50 μL of the stop solution was added and the plates were incubated at 37 °C for 20 min in the dark. Fluorescence was measured at a λem of 460 nm and a λex of 380 nm. Enzyme activity is expressed as a percentage with respect to the nontreated cells, after subtracting the blank (well with no enzyme and no compound).

[9] = tested on: HT29 cells; assay: HT29 cell viability, MTS assay, 50 μM; type: cell-based; details: 48 h; for effect on viability when preilluminated: preilluminated (380 or 550 nm)
Experimental: as §3, §1, §4, §5, §2

[10] = UV–vis spectra at 25–50 μM in DMSO (Table 1)
[11] = preillumination 380 nm, 48 h, read-out: IC50 light (concentration that reduces cell viability by half)
[12] = HPLC at isosbestic point (310–338 nm), 100 μM in DMSO after illumination with λcis (Table 1)
[13] = HPLC at isosbestic point (310–338 nm), 100 μM in DMSO after illumination with λtrans (Table 1)
[14] = dark vs 365 or 380 nm (Table 2), fold
[15] = dark, 1 h at room temperature (Table 2), read-out: IC50 dark
[16] = illumination 365 or 380 nm, 1 h at room temperature (Table 2), read-out: IC50 light
[17] = preillumination 550 nm, 48 h, read-out: IC50 light (concentration that reduces cell viability by half)
[18] = HPLC at isosbestic point (290–336 nm), 100 μM in DMSO after illumination with λcis (Table 3)
[19] = HPLC at isosbestic point (290–336 nm), 100 μM in DMSO after illumination with λtrans (Table 3)
[20] = continuous illumination 550 nm (Table 4), read-out: IC50 light
[21] = dark (Table 4), read-out: IC50 dark
[22] = UV–vis spectra at 25–100 μM in DMSO (Table 3)

T1 sequence (Q13547 whole entry): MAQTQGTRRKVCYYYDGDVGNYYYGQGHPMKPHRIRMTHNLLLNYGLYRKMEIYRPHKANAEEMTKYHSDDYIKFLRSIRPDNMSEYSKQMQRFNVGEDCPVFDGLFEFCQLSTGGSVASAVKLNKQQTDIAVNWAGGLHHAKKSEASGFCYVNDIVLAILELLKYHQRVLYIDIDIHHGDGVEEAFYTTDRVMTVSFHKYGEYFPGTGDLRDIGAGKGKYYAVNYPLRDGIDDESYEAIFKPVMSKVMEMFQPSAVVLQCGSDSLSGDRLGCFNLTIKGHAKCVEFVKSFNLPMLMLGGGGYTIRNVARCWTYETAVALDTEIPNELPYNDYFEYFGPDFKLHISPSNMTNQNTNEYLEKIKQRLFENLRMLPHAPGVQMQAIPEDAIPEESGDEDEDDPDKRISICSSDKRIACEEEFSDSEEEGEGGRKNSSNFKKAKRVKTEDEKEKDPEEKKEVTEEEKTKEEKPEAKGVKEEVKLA

| Structure (SMILES) | λmax trans [4, 10] [nm] | IC50 [3, 11] [µM] | IC50(dark)/IC50(light) [3] | IC50 [3, 17] [µM] | % cis at λcis [7, 18] [%] | % trans at λtrans [7, 19] [%] | IC50(dark)/IC50(light) ([8]; Table 4) | IC50 [8, 20] [µM] | IC50 [8, 21] [µM] | λcis [4, 22] [nm] | λmax cis [4, 22] [nm] | λmax trans [4, 22] [nm] | λtrans [4, 22] [nm] | effect on viability in the dark [5] | effect on viability when preilluminated [5] | effect on viability in the dark [6] | effect on viability when preilluminated [6] | effect on viability in the dark [9] | effect on viability when preilluminated [9] | cell death under dark vs light conditions ([3]; in words) | other results |
| --- | --- | --- | --- | --- | --- | --- | --- | --- | --- | --- | --- | --- | --- | --- | --- | --- | --- | --- | --- | --- | --- |
| CN(C)c1ccc(/N=N/c2ccc(C(=O)Nc3ccccc3N)cc2)cc1 [Compound 2] | 450 | – | – | – | – | – | – | – | – | – | – | – | – | – | – | – | – | – | – | – | λcis [1]: 460^5 nm; λtrans [1]: 580^5 nm; activation wavelength [2]: 470 nm; half-life ([2]; room temperature in PBS): 60 μs; activity under dark and illumination conditions ([3]; in words): inactive |
| COc1ccc(/N=N/c2ccc(/C=C/C(=O)Nc3ccccc3N)cc2)cc1 [Compound 11, (E)-N-(2-Aminophenyl)-3-(4-((E)-(4-methoxyphenyl)diazenyl)phenyl)acrylamide] | 378 | 12 | >8.3 | – | – | – | – | – | – | – | – | – | – | little or no effect | significantly reduced the viability | little or no effect | significantly reduced the viability | little or no effect | significantly reduced the viability | – | IC50 dark (concentration that reduces cell viability by half) ([3]; dark, 48 h): no activity; viability decreasing to ([3]; 48 h): 30%; % cis at λcis [7, 12]: 80%; % trans at λtrans [7, 13]: 67%; IC50(dark)/IC50(light) [8, 14]: >50; IC50 [8, 15]: > 10 µM; IC50 [8, 16]: 0.2 µM; stability after multiple cis/trans isomerization cycles ([4]; 25 μM in DMSO, 380–550 nm cycles, 2 min each): stable; λcis (optimal wavelength trans to cis) [4]: 380 nm; λtrans (optimal wavelength cis to trans) [4]: 550 nm |
| COc1ccc(/N=N/c2ccc(/C=C/C(=O)Nc3cc(-c4cccs4)ccc3N)cc2)cc1 [Compound 20, (E)-N-(2-Amino-5-(thiophen-2-yl)phenyl)-3-(4-((E)-(4-methoxyphenyl)diazenyl)phenyl)acrylamide] | 378 | 7.4 | >14 | – | – | – | – | – | – | – | – | – | – | little or no effect | significantly reduced the viability | little or no effect | significantly reduced the viability | little or no effect | significantly reduced the viability | – | IC50 ([3]; preillumination, 24 h, read-out: IC50 (365 nm, 24 h)): 13 µM; IC50 dark (concentration that reduces cell viability by half) ([3]; dark, 48 h): no activity; viability decreasing to ([3]; 48 h): 30%; % cis at λcis [7, 12]: 63%; % trans at λtrans [7, 13]: 82%; IC50(dark)/IC50(light) [8, 14]: >29; IC50 [8, 15]: > 10 µM; IC50 [8, 16]: 0.35 µM; λcis (optimal wavelength trans to cis) [4]: 380 nm; λtrans (optimal wavelength cis to trans) [4]: 550 nm |

Now from value to compound, other results behind:

| λmax trans [4, 10] [nm] | IC50 [3, 11] [µM] | IC50(dark)/IC50(light) [3] | IC50 [3, 17] [µM] | % cis at λcis [7, 18] [%] | % trans at λtrans [7, 19] [%] | IC50(dark)/IC50(light) ([8]; Table 4) | IC50 [8, 20] [µM] | IC50 [8, 21] [µM] | λcis [4, 22] [nm] | λmax cis [4, 22] [nm] | λmax trans [4, 22] [nm] | λtrans [4, 22] [nm] | Structure (SMILES) | effect on viability in the dark [5] | effect on viability when preilluminated [5] | effect on viability in the dark [6] | effect on viability when preilluminated [6] | effect on viability in the dark [9] | effect on viability when preilluminated [9] | cell death under dark vs light conditions ([3]; in words) | other results |
| --- | --- | --- | --- | --- | --- | --- | --- | --- | --- | --- | --- | --- | --- | --- | --- | --- | --- | --- | --- | --- | --- |
| – | – | >2.7 | 37 | 77 | 74 | >5.0 | 2 | > 10 | 550 | 434 | 358 | 455 | COc1cc(F)c(/N=N/c2c(F)cc(/C=C/C(=O)Nc3ccccc3N)cc2F)c(F)c1 [Compound 32a, (E)-N-(2-Aminophenyl)-3-(4-((E)-(2,6-difluoro-4-methoxyphenyl)diazenyl)-3,5-difluorophenyl)acrylamide] | little or no effect | significantly reduced the viability | little or no effect | significantly reduced the viability | little or no effect | significantly reduced the viability | inducing cell death only under light conditions | activity at the highest tested concentration in the dark ([8]; dark): no or little activity; IC50 under illumination, in words [8]: low micromolar range |
| – | – | >2.7 | 37 | 68 | 85 | >2.6 | 3.9 | > 10 | 550 | 442 | 358 | 455 | COc1cc(F)c(/N=N/c2c(F)cc(/C=C/C(=O)Nc3ccccc3N)cc2Cl)c(Cl)c1 [Compound 32c, (E)-N-(2-Aminophenyl)-3-(3-chloro-4-((E)-(2-chloro-6-fluoro-4-methoxyphenyl)diazenyl)-5-fluorophenyl)acrylamide] | little or no effect | significantly reduced the viability | little or no effect | significantly reduced the viability | little or no effect | significantly reduced the viability | inducing cell death only under light conditions | activity at the highest tested concentration in the dark ([8]; dark): no or little activity; IC50 under illumination, in words [8]: low micromolar range |
| – | – | >3.4 | 29 | 84 | 67 | ≈5.9 | 1.7 | ~10 | 550 | 428 | 348 | 455 | COc1cc(F)c(/N=N/c2c(F)cc(C(=O)Nc3ccccc3N)cc2F)c(F)c1 [Compound 38a, (E)-N-(2-Aminophenyl)-4-((2,6-difluoro-4-methoxyphenyl)diazenyl)-3,5-difluorobenzamide] | little or no effect | significantly reduced the viability | little or no effect | significantly reduced the viability | little or no effect | significantly reduced the viability | inducing cell death only under light conditions | IC50 ([3]; dark, 48 h, read-out: IC50 dark (concentration that reduces cell viability by half)): > 100 µM; IC50 ([8]; supplementary CSV, read-out: HDAC1 IC50 dark): 10 µM |
